For 19 compounds, T/C results are on record in PubChem BioAssay AID248 (DTP/NCI, 2004).

For the assay, the system named is L1210 leukemia ip in BDF1 mice, survival T/C. Briefly: NCI In Vivo Anticancer Drug Screen. Data for tumor model L1210 Leukemia (intraperitoneal) in B6D2F1 (BDF1) mice. The note with it: endpoint: mean survival time, higher = longer survival. In short, it runs like this:
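Transplantable tumor model; survival measured in treated vs vehicle control mice. Value = treated/control.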

[1] abbreviates: dose: 100.0 mg/kg/injection, schedule: Q01DX001 (ip), vehicle: carboxymethylcellulose (CMC).
Where [2] appears, read: dose: 200.0 mg/kg/injection, schedule: Q01DX001 (ip), vehicle: carboxymethylcellulose (CMC).
Setting [3] is: dose: 100.0 mg/kg/injection, schedule: Q01DX001 (ip), vehicle: saline.
Setting [4] is: dose: 100.0 mg/kg/injection, schedule: Q01DX009 (ip), vehicle: Klucel (hydroxypropylcellulose) (HPC).
Setting [5] is: dose: 100.0 mg/kg/injection, schedule: Q04DX003 (ip), vehicle: Klucel (hydroxypropylcellulose) (HPC).
[6] abbreviates: dose: 200.0 mg/kg/injection, schedule: Q01DX009 (ip), vehicle: Klucel (hydroxypropylcellulose) (HPC).
The mark [7] stands for this setting: dose: 400.0 mg/kg/injection, schedule: Q01DX001 (ip), vehicle: saline.
Setting [8] is: dose: 400.0 mg/kg/injection, schedule: Q01DX009 (ip), vehicle: Klucel (hydroxypropylcellulose) (HPC).
The mark [9] stands for this setting: dose: 400.0 mg/kg/injection, schedule: Q04DX003 (ip), vehicle: Klucel (hydroxypropylcellulose) (HPC).
[10] abbreviates: dose: 400.0 mg/kg/injection, schedule: Q01DX001 (ip), vehicle: carboxymethylcellulose (CMC).

Where “and” joins values, the source holds several entries; their conditions need not be identical. Identical values can stand only once. Inconclusive results and toxic doses are left out.

Turning to `CC(=O)c1ccc(Br)cc1OCC(=O)O`, the T/C runs as follows: (dose: 100.0 mg/kg/injection, schedule: Q01DX009 (ip), vehicle: gum acacia) 102 % of control; (dose: 100.0 mg/kg/injection, schedule: Q04DX003 (ip), vehicle: gum acacia) 97 % of control; (dose: 200.0 mg/kg/injection, schedule: Q01DX009 (ip), vehicle: gum acacia) 103 % of control; (dose: 200.0 mg/kg/injection, schedule: Q04DX003 (ip), vehicle: gum acacia) 92 % of control; (dose: 400.0 mg/kg/injection, schedule: Q04DX003 (ip), vehicle: gum acacia) 94 % of control.
With `CCOC(=O)c1ccc(Nc2nnc(-c3ccc(OC)cc3OC)s2)cc1`, the T/C by setting is: (dose: 100.0 mg/kg/injection, schedule: Q04DX002 (ip), vehicle: saline with Tween-80) 104 % of control; (dose: 200.0 mg/kg/injection, schedule: Q04DX002 (ip), vehicle: saline with Tween-80) 104 % of control; (dose: 400.0 mg/kg/injection, schedule: Q04DX002 (ip), vehicle: saline with Tween-80) 101 % of control.
For `O=C(CCN1CCC(c2ccccc2)CC1)c1ccc(F)cc1`, the T/C under setting [1] is 106 % of control and the T/C under setting [2] was 93 % of control.
For the compound `Nc1ccc(CSc2ccccc2)cc1F`, the T/C reads like this: (dose: 100.0 mg/kg/injection, schedule: Q01DX009 (ip), vehicle: saline + alcohol) 94 % of control; (dose: 200.0 mg/kg/injection, schedule: Q01DX009 (ip), vehicle: saline + alcohol) 93 % of control; (dose: 400.0 mg/kg/injection, schedule: Q01DX009 (ip), vehicle: saline + alcohol) 86 % of control.
As for `S=P(c1ccccc1)(N1CCN(c2ccc(Cl)cc2)CC1)N1CCN(c2ccc(Cl)cc2)CC1`, the T/C runs as follows: under setting [3], 88 % of control; under setting [4], 102 % of control; under setting [5], 95 % of control; under setting [6], 91 % of control; under setting [7], 90 % of control; under setting [8], 93 % of control. Under setting [9], the T/C is 92 % of control.
Consider `CCc1ccc(P(=O)(O)O)cc1`, for which the T/C is 94 % of control (dose: 75.0 mg/kg/injection, schedule: Q01DX001 (ip), vehicle: saline); 103 % of control (dose: 150.0 mg/kg/injection, schedule: Q01DX001 (ip), vehicle: saline); 88 % of control (dose: 300.0 mg/kg/injection, schedule: Q01DX001 (ip), vehicle: saline).
As for `O=C1C2CCN(CC2)C1C(c1ccccc1)c1ccccc1` (configuration not stated), the T/C runs as follows: (dose: 100.0 mg/kg/injection, schedule: Q04DX003 (ip), vehicle: saline) 96 % of control; (dose: 200.0 mg/kg/injection, schedule: Q04DX003 (ip), vehicle: saline) 102 % of control; (dose: 400.0 mg/kg/injection, schedule: Q04DX003 (ip), vehicle: saline) 100 % of control.
On to `CN1CCN(CCNC(c2ccccc2)C(O)c2ccccc2)CC1` (configuration not stated), for which the T/C under setting [5] was 97 % of control.
In the case of `CCCCC(=O)C1CN(C(C)(C)C)C1`, the T/C was 102 % of control (dose: 5.0 mg/kg/injection, schedule: Q01DX001 (ip), vehicle: saline); 104 % of control (dose: 5.0 mg/kg/injection, schedule: Q01DX009 (ip), vehicle: saline); 97 % of control (dose: 10.0 mg/kg/injection, schedule: Q01DX001 (ip), vehicle: saline); 111 % of control (dose: 10.0 mg/kg/injection, schedule: Q01DX009 (ip), vehicle: saline); 102 % of control (dose: 20.0 mg/kg/injection, schedule: Q01DX001 (ip), vehicle: saline); 97 % of control (dose: 20.0 mg/kg/injection, schedule: Q01DX009 (ip), vehicle: saline).
As to `CCOC(=O)CC(CC(=O)OCC)NC(=O)c1ccc(N(C)Cc2ccccc2)cc1`, the T/C is 107 % of control under setting [1], 108 % of control under setting [2] and 105 % of control under setting [10].
For `CS(=O)(=O)OCCN(CCOS(C)(=O)=O)c1ccc(C=Nc2ccc(-c3csc(Cc4ccccc4)n3)cc2)cc1`, the T/C (dose: 20.0 mg/kg/injection, schedule: Q04DX003 (ip), vehicle: Klucel (hydroxypropylcellulose) (HPC)) was 122 % of control; the T/C (dose: 30.0 mg/kg/injection, schedule: Q04DX003 (ip), vehicle: Klucel (hydroxypropylcellulose) (HPC)) is 98 % of control; the T/C (dose: 66.0 mg/kg/injection, schedule: Q04DX003 (ip), vehicle: Klucel (hydroxypropylcellulose) (HPC)) is 152 % of control; the T/C (dose: 150.0 mg/kg/injection, schedule: Q04DX003 (ip), vehicle: Klucel (hydroxypropylcellulose) (HPC)) was 107 % of control.
`CC1Nc2ccccc2N2C(=O)CCC12` (configuration not stated): the T/C runs as follows: (dose: 50.0 mg/kg/injection, schedule: Q01DX009 (ip), vehicle: Klucel (hydroxypropylcellulose) (HPC)) 106 % of control; under setting [4], 103 % of control; under setting [6], 106 % of control.
Consider `CC1CCc2ccccc2N1CCN` (configuration not stated), for which the T/C is 103 % of control (dose: 25.0 mg/kg/injection, schedule: Q01DX009 (ip), vehicle: saline); 103 % of control (dose: 50.0 mg/kg/injection, schedule: Q01DX009 (ip), vehicle: saline); 97 % of control (dose: 100.0 mg/kg/injection, schedule: Q01DX009 (ip), vehicle: saline).
Turning to `CN(C)c1ccc(C=Nc2ccc(N(C)C)cc2)cc1`, the T/C is, setting by setting: under setting [1], 105 % of control; (dose: 100.0 mg/kg/injection, schedule: Q01DX009 (ip), vehicle: carboxymethylcellulose (CMC)) 96 % of control and 92 % of control; (dose: 100.0 mg/kg/injection, schedule: Q04DX002 (ip), vehicle: carboxymethylcellulose (CMC)) 102 % of control and 104 % of control; (dose: 100.0 mg/kg/injection, schedule: Q04DX003 (ip), vehicle: carboxymethylcellulose (CMC)) 102 % of control; under setting [2], 93 % of control; (dose: 200.0 mg/kg/injection, schedule: Q01DX009 (ip), vehicle: carboxymethylcellulose (CMC)) 86 % of control and 88 % of control. Further, the T/C was 98 % of control and 105 % of control (dose: 200.0 mg/kg/injection, schedule: Q04DX002 (ip), vehicle: carboxymethylcellulose (CMC)); 92 % of control (dose: 200.0 mg/kg/injection, schedule: Q04DX003 (ip), vehicle: carboxymethylcellulose (CMC)); 88 % of control under setting [10]; 86 % of control and 92 % of control (dose: 400.0 mg/kg/injection, schedule: Q01DX009 (ip), vehicle: carboxymethylcellulose (CMC)); 97 % of control and 100 % of control (dose: 400.0 mg/kg/injection, schedule: Q04DX002 (ip), vehicle: carboxymethylcellulose (CMC)); 92 % of control (dose: 400.0 mg/kg/injection, schedule: Q04DX003 (ip), vehicle: carboxymethylcellulose (CMC)).
Consider `O=NN(CCCl)C(=O)Nc1ncc([N+](=O)[O-])s1`, for which the T/C by setting is: (dose: 8.0 mg/kg/injection, schedule: Q01DX001 (ip), vehicle: other) 105 % of control; (dose: 16.0 mg/kg/injection, schedule: Q01DX001 (ip), vehicle: other) 105 % of control; (dose: 31.0 mg/kg/injection, schedule: Q01DX001 (ip), vehicle: other) 110 % of control; (dose: 62.0 mg/kg/injection, schedule: Q01DX001 (ip), vehicle: other) 109 % of control; (dose: 125.0 mg/kg/injection, schedule: Q01DX001 (ip), vehicle: other) 116 % of control.
As to `O=C(NO)c1ccccc1.O=C(NO)c1ccccc1.O=C(NO)c1ccccc1.[Fe]`, under “dose: 100.0 mg/kg/injection, schedule: Q04DX003 (ip), vehicle: DMSO”, the T/C was 93 % of control.
Turning to `CSc1ccc(NC(=O)Nc2ccccc2C)cc1`, the T/C is 100 % of control under setting [4]; 93 % of control under setting [5]; 94 % of control under setting [6]; 95 % of control (dose: 200.0 mg/kg/injection, schedule: Q04DX003 (ip), vehicle: Klucel (hydroxypropylcellulose) (HPC)); 96 % of control under setting [8]; 88 % of control under setting [9].
On to `OC1CCCCC1Br` (configuration not stated), for which the T/C runs as follows: (dose: 50.0 mg/kg/injection, schedule: Q01DX001 (ip), vehicle: saline) 96 % of control; under setting [3], 98 % of control; (dose: 200.0 mg/kg/injection, schedule: Q01DX001 (ip), vehicle: saline) 113 % of control; under setting [7], 102 % of control.
Turning to `COc1cccc(NC(=S)NC(Cc2ccccc2)c2ccccc2)c1` (configuration not stated), the T/C runs as follows: (dose: 100.0 mg/kg/injection, schedule: Q04DX002 (ip), vehicle: Klucel (hydroxypropylcellulose) (HPC)) 94 % of control; (dose: 200.0 mg/kg/injection, schedule: Q04DX002 (ip), vehicle: Klucel (hydroxypropylcellulose) (HPC)) 101 % of control; (dose: 400.0 mg/kg/injection, schedule: Q04DX002 (ip), vehicle: Klucel (hydroxypropylcellulose) (HPC)) 97 % of control.
